Here are results for one compound from patent US20220184003A1, “Formulations of Cannabidiol Derivatives and Their Use as Modulators of Cannabinoid Receptor Type 2 (CB2)” (EMERALD HEALTH PHARMACEUTICALS INC, priority 2019, published 2022).

The structures appear in SMILES notation. Converted amounts (≈) assume the structure as drawn.

Data set [1] in a line: physchem. The conditions noted are these: oil or lipid. The class given is physicochemical. On the procedure:
The solubility of a compound is an important factor in determining its absorption from the gastrointestinal tract and ultimately its oral bioavailability. First it was determined the solubility of VCE-004.8 in a collection of different solvents (e.g., aqueous, lipidic, organic, etc.). Additionally, a test of stability of VCE-004.8 in selected solvents was also used as a criterion for selection of the best solvents.

Data set [2] can be described thus: physchem. The conditions noted are these: pH 7.4. The text has this: Lipophilicity is a key determinant of the PK behavior of drugs. It can influence distribution into tissues, absorption and the binding characteristics of a drug, as well as being an important factor in determining the solubility of a compound. Log D (distribution co-efficient) is used as a measure of lipophilicity.
The solution was transferred to tubes, centrifuged and the supernatant is drawn off the top, leaving any solid compound in the bottom. This supernatant was then syringe filtered through 0.2 μm filters to produce the initial solution. Three vials were prepared containing values. […] The vials were mixed to equilibrium, then centrifuged to ensure the two phases were fully separated before the octanol was removed and the buffer samples analyzed. For the quantitative analysis, the aqueous solutions were analyzed by LC MS/MS. The amount of VCE-004.8 in each vial was quantified against a 6 points standard curve which was produced by serially diluting the initial solution. Log D was calculated using the equation, shown in FIG. 7, wherein ConcINITlAL is a concentration of compound in the initial aqueous solution, ConcFINAL is a concentration of compound in final aqueous phase, Vaq is a volume of aqueous phase, and Voct is a volume of octanol phase.

Data set [3] is described as follows: in vitro. In kind it is in vitro ADME. Particulars: plasma.
The subject of data set [4] is Experimental Autoimmune Encephalomyelitis (EAE) model. The data set is described as follows: Experimental autoimmune encephalomyelitis model. The class given is in vivo, C57BL/6 female mice. On the procedure:
EAE was induced in C57BL/6 female mice at 6-8 weeks of age by subcutaneous immunization with MOG35-55 (300 μg: peptide synthesis section, CBM, CSIC. Madrid, Spain) and 200 μg of Mycobacterium tuberculosis (H37Ra Difco, Franklin Lakes, N.J., USA) in a 1:1 mix with […]. On the same day and 2 days later, mice were injected intraperitoneally with 200 ng of pertussis toxin (Sigma) in 0.1 mL PBS. […] The mice were examined daily for clinical signs of EAE and disease scores were measured as follows: 0, no disease; 1, limb tail; 2, limb tail and hind limb weakness; 3, hind limb paralysis; 4, hind limb and front limb paralysis; 5, moribund and death. All animals were sacrificed at 28 days for further analysis,
Mice were anesthetized by i.p. administration with a ketamine-xylazine solution and they were transcardially perfused with saline 0.9%. The spinal cord was obtained by extrusion with saline. […]
For IHC analysis, free-floating thoracic spinal cord (50 μm) sections were washed with 0.1M PB. […] Samples were photographed, digitalized using a Leica DFC420c camera and analyzed using Image J software. Myelin integrity was analyzed using the Hito CryoMyelmStain™ Kit (Gold phosphate complex Myelin Staining Kit) following manufacturer's recommendation (Hitobiotech Corp., Kingsport, Tenn., USA). […]

Take `C=C(C)C1CCC(C)=C[C@H]1C1=C(O)C(=O)C(CCCCC)=C(NCc2ccccc2)C1=O` (stereo partly drawn) [VCE-004.8, (1′R,6′R)-3-(Benzylamine)-6-hydroxy-3′-methyl-4-pentyl-6′-(prop-1-en-2-yl)[1,1′-bi(cyclohexane)]-2′,3,6-triene-2,5-dione]: the solubility in data set [1] (25 °C) is 17.7 mg/mL (≈ 40.8 mM); in data set [1] (37 °C) it was 34.5 mg/mL (≈ 79.6 mM). The same compound returned a logD in data set [2] above 5. This compound also came in with a fraction unbound in data set [3] below 0.01. For the same compound, the “microglial reactivity and infiltration of inflammatory cells” value in data set [4] (EAE animals, myelin structure preserved) is “significantly reduced”. In data set [4] (doses of 5 mg/kg, 10 mg/kg, and 20 mg/kg), the “therapeutic effect in EAE model” value is given as “highly significant therapeutic effect”.

As usually defined, the solubility is how much of the substance goes into solution per volume. What is called logD is lipophilicity at a set pH, counting ionised and neutral species. Lower therefore signals a more hydrophilic compound. For orientation: fraction unbound means free concentration divided by total concentration. A higher fraction unbound goes with weak binding.
